“And” between values parts separate entries of the source, which are not always exact repeats. Identical values can stand only once. “Also recorded” adds a separate entry of the source.
Columns and labels:
MKL-1 MCC cells = assay: XTT cell viability assay and synergy testing, MKL-1 cells; assay type: cell-based; settings: 96 hours; for sensitivity of MKL-1 cells to MDM2 inhibitor (XTT viability): MKL-1 (p53 wild type); for Response: relative viability vs untreated; for Response-rep1 / Response-rep2: Lenalidomide 0 nM; for relative viability (XTT), untreated = 1: combinations with a fixed amount of Lenalidomide (5 uM), replicate columns
Experimental: (§1) Cell viability assays were performed using Cell Proliferation Kit II (XTT) (Roche) according to the manufacturer's instructions and BH3 profiling was described in Pallis et al. (36). Synergy testing was performed using Compusyn and Synergyfinder (28, 29).
The XTT assay was performed to determine the relative viability (% response) normalized to untreated cells.

p53 = assay: Western blot of p53 response in IMR90-p53DD cells; assay type: cell-based, human; settings: IMR90 cells expressing p53DD, Nutlin-3 1 μM, 24 hours
Experimental: (§2) Confluent cultures of cells were washed with ice-cold phosphate-buffered saline (PBS) and resuspended in EBC lysis buffer (50 mM Tris, pH 8.0, 150 mM NaCl, 0.5% NP-40, 1:10,000-mercaptoethanol, 0.5 mM EDTA) for 10 min on ice and then centrifuged. Clarified lysates were incubated overnight with antibodies and magnetic protein A/G beads (PureProteome magnetic beads, EMD Millipore). […] Quantitative western blotting was performed using the Odyssey near-infrared system (Li-Cor Biotechnology).

MS-1 cells = assay: XTT viability assay, MS-1 cells; assay type: cell-based; settings: MS-1 (p53 mutant); 96 hours
Experimental: as §1

CK1α = CK1α (Homo sapiens, UniProt P48729); assay: Western blot of CK1α protein levels in MKL-1 cells; assay type: cell-based; settings: IMiD 10 μM
Experimental: as §2

MKL-1 MCC xenografts = assay: Xenograft efficacy study; settings: individual animals, oral daily, HDM201 40 mg/kg and/or lenalidomide 50 mg/kg; for Tumor Volume Change, Abs Ch = T − T0: tumor volumes in mm3
Description: The study was terminated when the tumor volume reached the maximum permissible size of 2000 mm3.

Chain of CK1α (P48729 whole entry): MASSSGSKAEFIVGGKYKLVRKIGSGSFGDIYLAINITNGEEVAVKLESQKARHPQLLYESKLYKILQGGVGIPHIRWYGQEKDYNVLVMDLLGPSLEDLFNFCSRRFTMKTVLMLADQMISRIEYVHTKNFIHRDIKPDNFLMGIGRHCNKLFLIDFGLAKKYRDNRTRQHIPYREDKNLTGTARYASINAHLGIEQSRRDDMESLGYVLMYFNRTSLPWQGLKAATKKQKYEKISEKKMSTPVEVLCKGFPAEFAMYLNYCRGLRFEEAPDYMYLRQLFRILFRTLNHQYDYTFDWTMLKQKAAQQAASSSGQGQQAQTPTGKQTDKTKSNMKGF

In the case of `COc1ccc(C2=N[C@@H](c3ccc(Cl)cc3)[C@@H](c3ccc(Cl)cc3)N2C(=O)N2CCNC(=O)C2)c(OC(C)C)c1` [Nutlin-3], the “sensitivity of MKL-1 cells to MDM2 inhibitor (XTT viability)” value (MKL-1 MCC cells) was “sensitive”, the Response (MKL-1 MCC cells; Nutlin-3 1250 nM alone) was 96.8309% and 82.16% and the Response (MKL-1 MCC cells; Nutlin-3 2500 nM alone) was 65.56% and 72.5696%. The Response (MKL-1 MCC cells; Nutlin-3 3750 nM alone) was 44.2% and 63.6648%, the Response (MKL-1 MCC cells; Nutlin-3 4500 nM alone) was 41.19% and 56.8421% and the p53 response (p53) was “does not elicit p53 response”. The p53 response (p53; listed as nutlin-3) was “did not increase p53, p-p53 and PUMA levels” and the “sensitivity of MS-1 cells to MDM2 inhibitor (XTT viability)” value (MS-1 cells) was “not MS-1 cells were sensitive”.
`Nc1cccc2c1C(=O)N(C1CCC(=O)NC1=O)C2=O` (stereo not shown) [pomalidomide] was tested, and the CK1α protein levels (CK1α) was “did not reduce CK1α protein levels; also recorded: to a lesser degree”.
With `O=C1CCC(N2C(=O)c3ccccc3C2=O)C(=O)N1` (stereo not shown) [thalidomide] the CK1α protein levels (CK1α) was “did not reduce CK1α protein levels; also recorded: not thalidomide”.
`COc1ncc(-c2nc3c(n2C(C)C)[C@H](c2ccc(Cl)cc2)N(c2cc(Cl)cn(C)c2=O)C3=O)c(OC)n1` [HDM201, (S)-5-(5-Chloro-1-methyl-2-oxo-1,2-dihydro-pyridin-3-yl)-6-(4-chloro-phenyl)-2-(2,4-dimethoxy-pyrimidin-5-yl)-1-isopropyl-5,6-dihydro-1H-pyrrolo[3,4-d]imidazol-4-one] showed a Response-rep1 (MKL-1 MCC cells; HDM201 50 nM) of 90.76%, a Response-rep2 (MKL-1 MCC cells; HDM201 50 nM) of 92.94% and a Response-rep1 (MKL-1 MCC cells; HDM201 100 nM) of 75.8%. The Response-rep2 (MKL-1 MCC cells; HDM201 100 nM) was 77.72%, the Response-rep1 (MKL-1 MCC cells; HDM201 150 nM) was 53.3961% and the Response-rep2 (MKL-1 MCC cells; HDM201 150 nM) was 61.84%. It also gave a Response-rep1 (MKL-1 MCC cells; HDM201 180 nM) of 33.32%, a Response-rep2 (MKL-1 MCC cells; HDM201 180 nM) of 40.87% and a Response (MKL-1 MCC cells; HDM201 50 nM alone) of 93.9107%. For the same compound, the Response (MKL-1 MCC cells; HDM201 100 nM alone) was 90.5417%, the Response (MKL-1 MCC cells; HDM201 150 nM alone) was 94.8184% and the Response (MKL-1 MCC cells; HDM201 180 nM alone) was 87.8557%. The “Tumor Volume Change, % Ch = (T − T0)/T0” value (MKL-1 MCC xenografts; day 0) was 0.00%, the “Tumor Volume Change, Abs Ch = T − T0” value (MKL-1 MCC xenografts; day 0) was 0.00 and the “Tumor Volume Change, % Ch = (T − T0)/T0” value (MKL-1 MCC xenografts; day 4) was 168.68% and 25.53% and 16.64% and 93.53% and 6.55% and 29.08% and 14.67% and 11.44%. The “Tumor Volume Change, Abs Ch = T − T0” value (MKL-1 MCC xenografts; day 4) was 302.89 and 66.12 and 32.34 and 133.99 and 10.51 and 44.16 and 21.14 and 14.26, the “Tumor Volume Change, % Ch = (T − T0)/T0” value (MKL-1 MCC xenografts; day 7) was 392.40% and 107.65% and 56.29% and 123.49% and 37.00% and 27.47% and 30.43% and 28.15% and the “Tumor Volume Change, Abs Ch = T − T0” value (MKL-1 MCC xenografts; day 7) was 704.61 and 278.82 and 109.40 and 176.91 and 59.41 and 41.71 and 43.86 and 35.09. For the same compound, the “Tumor Volume Change, % Ch = (T − T0)/T0” value (MKL-1 MCC xenografts; day 11) was 465.37% and 122.53% and 125.88% and 248.58% and 101.24% and 14.09% and 37.76% and 61.17%, the “Tumor Volume Change, Abs Ch = T − T0” value (MKL-1 MCC xenografts; day 11) was 835.64 and 317.36 and 244.65 and 356.12 and 162.53 and 21.39 and 54.43 and 76.25 and the “Tumor Volume Change, % Ch = (T − T0)/T0” value (MKL-1 MCC xenografts; day 14) was 597.67% and 128.4% and 191.55% and 295.64% and 94.41% and 41.69% and 77.45% and 56.59%. For the same compound, the “Tumor Volume Change, Abs Ch = T − T0” value (MKL-1 MCC xenografts; day 14) was 1073.19 and 332.66 and 372.29 and 423.53 and 151.58 and 63.30 and 111.64 and 70.55, the “Tumor Volume Change, % Ch = (T − T0)/T0” value (MKL-1 MCC xenografts; day 18) was 741.47% and 4165.70% and 234.58% and 350.27% and 114.06% and 20.72% and 81.45% and 83.83% and the “Tumor Volume Change, Abs Ch = T − T0” value (MKL-1 MCC xenografts; day 18) was 1331.39 and 429.17 and 455.90 and 501.79 and 183.12 and 31.46 and 117.41 and 104.49.
`CC(C)[C@@H](CS(=O)(=O)C(C)C)N1C(=O)[C@@](C)(CC(=O)O)C[C@H](c2cccc(Cl)c2)[C@H]1c1ccc(Cl)cc1` [AMG232] was tested, and the “sensitivity of MKL-1 cells to MDM2 inhibitor (XTT viability)” value (MKL-1 MCC cells) was “sensitive” and the “sensitivity of MS-1 cells to MDM2 inhibitor (XTT viability)” value (MS-1 cells) was “not MS-1 cells were sensitive”.
With `COc1cc(C(=O)O)ccc1NC(=O)[C@@H]1N[C@@H](CC(C)(C)C)[C@](C#N)(c2ccc(Cl)cc2F)[C@H]1c1cccc(Cl)c1F` [RG7388] the “sensitivity of MKL-1 cells to MDM2 inhibitor (XTT viability)” value (MKL-1 MCC cells) was “sensitive”, the “relative viability (XTT), untreated = 1” value (MKL-1 MCC cells; Nutlin-3 or RG7388 level 25 (unit not given)) was 0.7819 and 0.7111 and 0.8222 and the “relative viability (XTT), untreated = 1” value (MKL-1 MCC cells; Nutlin-3 or RG7388 level 50 (unit not given)) was 0.6836 and 0.5814 and 0.6885. For the same compound, the “relative viability (XTT), untreated = 1” value (MKL-1 MCC cells; Nutlin-3 or RG7388 level 75 (unit not given)) was 0.553 and 0.4338 and 0.5431, the “relative viability (XTT), untreated = 1” value (MKL-1 MCC cells; Nutlin-3 or RG7388 level 90 (unit not given)) was 0.4663 and 0.3695 and 0.5108 and the “sensitivity of MS-1 cells to MDM2 inhibitor (XTT viability)” value (MS-1 cells) was “not MS-1 cells were sensitive”.
`CNc1ncc(-n2nc(N)c3cc(F)c(-c4ccc(O)c5ccccc45)cc32)c(Cl)c1C` [SC-24-UR99, 4-(3-amino-1-(4-chloro-5-methyl-6-(methylamino)pyridin-3-yl)-5-fluoro-1H-indazol-6-yl)naphthalen-1-ol] was tested, and the Response (MKL-1 MCC cells; SC-24-UR99 50 nM alone) was 103.6933% and 100.5561%, the Response (MKL-1 MCC cells; SC-24-UR99 100 nM alone) was 99.5168% and 105.263% and the Response (MKL-1 MCC cells; SC-24-UR99 150 nM alone) was 99.3633% and 93.4308%. The Response (MKL-1 MCC cells; SC-24-UR99 180 nM alone) was 92.5016% and 89.8385%.

Source: patent US12115151B2, “Method of treatment of p53 WT tumors” (Dana-Farber Cancer Institute, Inc., priority 2018, dated 2024)
